Measurements from ChEMBL document CHEMBL5042479, “Synthesis and Characterization of New V1A Antagonist Compounds: The Separation of Four Atropisomeric Stereoisomers” (J Med Chem, 2021).
Converted amounts (≈) assume the structure as drawn. Blank lines part the entries; values can stand above or below the compound they belong to.

Legend:
[1] = Intrinsic clearance in human liver microsomes in presence of reduced NADPH
[2] = Intrinsic clearance in mouse liver microsomes in presence of reduced NADPH
[3] = Permeability directional ratio in mouse Caco-2 cells; details: human
[4] = physchem; details: PBS, pH 7.4
Description: Kinetic solubility of compound in PBS at pH 7.4 incubated for 2 hrs by HPLC-MS analysis

[5] = system: 1321N1; assay: Selectivity ratio of Ki for human V2 receptor expressed in human 1321N1 cell membranes to Ki for human V1A receptor expressed in human 1321N1 cell membranes; format: cell-based
[6] = Apparent permeability across apical to basolateral side in mouse Caco-2 cells; details: human
[7] = Intrinsic clearance in rat liver microsomes in presence of reduced NADPH
[8] = biological target: T1, Vasopressin V2 receptor (Homo sapiens, UniProt P30518); assay: Displacement of [3H]-labelled arginine-vasopressin from human V2 receptor expressed in human 1321N1 cell membranes at 1 uM incubated for 60 mins by radioligand binding assay; details: Membrane
T1 sequence (P30518 whole entry): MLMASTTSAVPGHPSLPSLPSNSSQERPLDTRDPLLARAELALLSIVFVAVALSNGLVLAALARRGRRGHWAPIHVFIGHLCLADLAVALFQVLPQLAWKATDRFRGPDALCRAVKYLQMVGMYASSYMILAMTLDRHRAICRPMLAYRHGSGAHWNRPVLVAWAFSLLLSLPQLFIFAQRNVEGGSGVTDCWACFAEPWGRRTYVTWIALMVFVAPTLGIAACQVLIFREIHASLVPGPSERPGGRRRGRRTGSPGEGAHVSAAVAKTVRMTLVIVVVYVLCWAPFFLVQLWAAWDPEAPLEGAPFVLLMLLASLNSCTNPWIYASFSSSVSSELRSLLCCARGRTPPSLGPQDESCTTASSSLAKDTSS

[9] = biological target: T2, Vasopressin V1a receptor (Homo sapiens, UniProt P37288); assay: Inhibition of human V1A receptor expressed in human 1321N1 cells assessed as calcium mobilization by fluorescent plate reader; format: functional, cell-based
Target sequence in this assay (P37288 whole entry): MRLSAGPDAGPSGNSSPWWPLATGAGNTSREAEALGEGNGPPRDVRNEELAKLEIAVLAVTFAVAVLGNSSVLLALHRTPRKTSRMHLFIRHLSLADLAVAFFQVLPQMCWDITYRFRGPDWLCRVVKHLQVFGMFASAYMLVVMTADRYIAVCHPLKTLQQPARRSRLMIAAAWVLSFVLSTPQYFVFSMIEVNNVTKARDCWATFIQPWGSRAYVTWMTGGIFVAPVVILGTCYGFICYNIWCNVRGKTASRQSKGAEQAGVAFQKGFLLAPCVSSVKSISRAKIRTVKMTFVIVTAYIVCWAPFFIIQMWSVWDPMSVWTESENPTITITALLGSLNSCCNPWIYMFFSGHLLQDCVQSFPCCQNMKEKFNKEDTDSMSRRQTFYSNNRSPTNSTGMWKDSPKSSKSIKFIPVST

[10] = biological target: T1, Vasopressin V2 receptor; assay: Displacement of [3H]-arginine-vasopressin from human V2 receptor expressed in human 1321N1 cell membranes incubated for 60 mins by radioligand binding assay; set-up: species or system Membrane
[11] = biological target: T2, Vasopressin V1a receptor; assay: Displacement of [3H]-arginine-vasopressin from human V1A receptor expressed in human 1321N1 cell membranes incubated for 60 mins by radioligand binding assay; set-up: species or system Membrane
Target sequence in this assay (P37288 whole entry): as above

[12] = biological target: T2, Vasopressin V1a receptor; assay: Displacement of [3H]-labelled arginine-vasopressin from human V1A receptor expressed in human 1321N1 cell membranes at 5 nM incubated for 60 mins by radioligand binding assay; details: Membrane
Target sequence in this assay (P37288 whole entry, looked up): as the sequence (P37288 whole entry) above

- microsomal CLint [1]: 0.4 µL/min/mg
- microsomal CLint [2]: 6.3 µL/min/mg
- efflux ratio [3]: 6.2
- solubility kinetic at 2 h [4]: 97.5 µM (≈ 40.1 µg/mL)
- Papp A→B [6]: 20.3 ×10⁻⁶ cm/s
- microsomal CLint [7]: 38 µL/min/mg
Compound: OC1Cc2cc(Cl)ccc2-n2c(nnc2[C@H]2CC[C@H](Oc3ccccn3)CC2)C1 (stereo partly specified)
- Selectivity ratio [5]: 1570

- inhibition [8]: -3%
Compound: Cc1cccc2c1-n1c(nnc1[C@H]1CC[C@H](Oc3ccccn3)CC1)C[C@H](O)C2 (atropisomer aR) [listing 1 of 2 here]

- CLH [1]: 7 µL/min/mg
- CLH [2]: 94 µL/min/mg
- CLH [7]: 124 µL/min/mg
Compound: Clc1ccc2c(c1)CCCc1nnc([C@H]3CC[C@H](Oc4ccccn4)CC3)n1-2

- IC50 [9]: 1.9 nM
- Ki [10]: 1070 nM
- Ki [11]: 0.4 nM
Compound: Cc1ccc2c(c1)CC(O)Cc1nnc([C@H]3CC[C@H](Oc4ccccn4)CC3)n1-2 (stereo partly specified)

Compound: CN1Cc2cc(Cl)ccc2-n2c(nnc2C2CCN(c3ccccn3)CC2)C1
- inhibition [8]: 13%

- Ki [11]: 8.8 nM
- inhibition [8]: -9%
Compound: Cc1cccc2c1CC(O)Cc1nnc([C@H]3CC[C@H](Oc4ccccn4)CC3)n1-2 (stereo partly specified)

- microsomal CLint [1]: 3.2 µL/min/mg
- microsomal CLint [2]: 5.1 µL/min/mg
- Ki [10]: 200 nM
- efflux ratio [3]: 3.7
- solubility kinetic at 2 h [4]: 95.1 µM (≈ 39.1 µg/mL)
- Papp A→B [6]: 22.5 ×10⁻⁶ cm/s
- microsomal CLint [7]: 16.6 µL/min/mg
Compound: O[C@@H]1Cc2cc(Cl)ccc2-n2c(nnc2[C@H]2CC[C@H](Oc3ccccn3)CC2)C1
- Selectivity ratio [5]: 667

- Ki [11]: 12 nM
Compound: OC1Cc2c(Cl)cccc2-n2c(nnc2[C@H]2CC[C@H](Oc3ccccn3)CC2)C1 (stereo partly specified)

- IC50 [9]: 390 nM
- Ki [11]: 34 nM
- inhibition [8]: 3%
Compound: Cc1ccc2c(c1)-n1c(nnc1[C@H]1CC[C@H](Oc3ccccn3)CC1)CC(O)C2 (stereo partly specified)

- inhibition [8]: -5%
Compound: Cc1cccc2c1-n1c(nnc1[C@H]1CC[C@H](Oc3ccccn3)CC1)C[C@H](O)C2 (atropisomer aS) [listing 1 of 2 here]

- inhibition [8]: 0%
Compound: Cc1cccc2c1-n1c(nnc1[C@H]1CC[C@H](Oc3ccccn3)CC1)C[C@@H](O)C2 (atropisomer aS) [listing 1 of 2 here]

- inhibition [12]: 26%
Compound: OC1Cc2ccc(Cl)cc2-n2c(nnc2[C@H]2CC[C@H](Oc3ccccn3)CC2)C1 (stereo partly specified)

- Ki [11]: 6.3 nM
Compound: Cc1cccc2c1-n1c(nnc1[C@H]1CC[C@H](Oc3ccccn3)CC1)C[C@@H](O)C2 (atropisomer aR) [listing 1 of 2 here]

- Ki [11]: 2640 nM
Compound: Cc1cccc2c1-n1c(nnc1[C@H]1CC[C@H](Oc3ccccn3)CC1)C[C@@H](O)C2 (atropisomer aS) [listing 2 of 2 here]

- Ki [11]: 11 nM
Compound: Cc1cccc2c1-n1c(nnc1[C@H]1CC[C@H](Oc3ccccn3)CC1)C[C@H](O)C2 (atropisomer aR) [listing 2 of 2 here]

- inhibition [8]: -6%
Compound: Cc1cccc2c1-n1c(nnc1[C@H]1CC[C@H](Oc3ccccn3)CC1)C[C@@H](O)C2 (atropisomer aR) [listing 2 of 2 here]

- microsomal CLint [1]: 4.1 µL/min/mg
- microsomal CLint [2]: 6.7 µL/min/mg
- Ki [10]: 900 nM
- efflux ratio [3]: 4.7
- solubility kinetic at 2 h [4]: 98.9 µM (≈ 40.6 µg/mL)
- Papp A→B [6]: 20.5 ×10⁻⁶ cm/s
- microsomal CLint [7]: 56.2 µL/min/mg
Compound: O[C@H]1Cc2cc(Cl)ccc2-n2c(nnc2[C@H]2CC[C@H](Oc3ccccn3)CC2)C1
- Selectivity ratio [5]: 3000

Compound: CN(C)CCn1cc(C(=O)N2CCC3(CC2)OCc2ccccc23)c2ccc(Cl)cc21
- inhibition [8]: -6%

- Ki [11]: 146 nM
Compound: Cc1cccc2c1-n1c(nnc1[C@H]1CC[C@H](Oc3ccccn3)CC1)C[C@H](O)C2 (atropisomer aS) [listing 2 of 2 here]
